{"source": "patent US11419918B2", "about": "“Treatment of biliary cirrhosis based on oxyntomodulin analogue GLP-1R/GCGR dual-target agonist peptide” (Shenzhen Turier Biotech Co., Ltd., priority 2017, dated 2022)", "note": "Numbered stars: 1 amine (or outer) side, 2 acyl side, 3 side chain; on linkers, the order of the positions; unused ones are H or OH. Square brackets hold non-standard residues; d marks the D form. Primed or numbered codes have the meaning given here. Side chains are listed from the residue outwards. Ends that are not written are not given here. * marks the point of attachment. C18 diacid = O=C(O)CCCCCCCCCCCCCCCCC(=O)*; γGlu = O=C(O)[C@H](CCC(=O)[*:2])N[*:1]; Stearoyl = CCCCCCCCCCCCCCCCCC(=O)*; Palmitoyl = CCCCCCCCCCCCCCCC(=O)*; Nle = CCCC[C@H](N)C(=O)O; PEG2′ = not defined here"}
{"system": "human hepatic stellate cells (LX-2)", "test": "In vitro inhibition of hepatic fibrosis: expression of activation marker α-SMA in LX-2 cells (Western Blot, β-actin internal reference)", "format": "cell-based", "conditions": "10.0 μM, 48 hours, negative control (PBS) = 100%", "description": "Hepatic stellate cell strain LX-2 was selected to study and observe the effect of different doses of test substances on the expression of LX-2 cell activation marker α-SMA. Hepatic stellate cell LX-2 was laid on 35 mm cell culture plate, cultured with DMEM (high glucose)+10% FBS+1% double-antibody culture medium (Thermo Fisher), placed overnight when the cells grew to 70% convergence at 37° C. and under the condition of 5% CO2, and treated with the above GLP-1R/GCGR dual target agonist polypeptides 1-48 (dissolved in PBS) for 48 hours the next day morning to extract cell protein, carry out Western Blot, and take β-actin as internal reference and analyze the expression quantities of α-SMA and β-actin by a gray level of Image J 1.50i. PBS with the same volume as that in experimental group was added in negative control. […] The integrating gray level of α-SMA/β-actin in the negative control group was 100% to analyze the in vitro inhibition activity of hepatic fibrosis of tested polypeptide.", "units": {"Relative expression of α-SMA (α-SMA/β-actin, %)": "%"}}
{"substance": "His-(D-Ser)-Gln-Gly-Thr-Phe-Thr-Ser-Asp-Tyr-Ser-Lys-Tyr-Leu-Asp-Glu-Lys-Ala-Ala-Lys(PEG2-PEG2-γGlu-CO(CH2)16CO2H)-Glu-Phe-Ile-Glu-Trp-Leu-Leu-Asn-Gly-Gly-Pro-Ser-Ser-Gly-Ala-Pro-Pro-Pro-Ser-NH2 (H[dS]QGTFTSDYSKYLDEKAAK([PEG2′-PEG2′-γGlu-C18 diacid])EFIEWLLNGGPSSGAPPPS-NH2) [Compound 26]", "Relative expression of α-SMA (α-SMA/β-actin, %)": 44.44}
{"substance": "His-(D-Ser)-Gln-Gly-Thr-Phe-Thr-Ser-Asp-Tyr-Ser-Lys-Tyr-Leu-Asp-Lys(PEG2-PEG2-CO(CH2)14CH3)-Arg-Arg-Ala-Gln-Asp-Phe-Val-Gln-Trp-Leu-Leu-Asn-Thr-Gly-Gly-Pro-Ser-Ser-Gly-Ala-Pro-Pro-Pro-Ser-NH2 (H[dS]QGTFTSDYSKYLDK([PEG2′-PEG2′-Palmitoyl])RRAQDFVQWLLNTGGPSSGAPPPS-NH2) [Compound 42]", "Relative expression of α-SMA (α-SMA/β-actin, %)": 38.11}
{"substance": "His-(D-Ser)-Gln-Gly-Thr-Phe-Thr-Ser-Asp-Tyr-Ser-Lys-Tyr-Leu-Asp-Lys(PEG2-PEG2-CO(CH2)16CO2H)-Arg-Arg-Ala-Gla-Asp-Phe-Val-Gln-Trp-Leu-Met-Asn-Thr-Gly-Gly-Pro-Ser-Ser-Gly-Ala-Pro-Pro-Pro-Ser-NH2 (H[dS]QGTFTSDYSKYLDK([PEG2′-PEG2′-C18 diacid])RRAQDFVQWLMNTGGPSSGAPPPS-NH2; also: position 20: name writes Gla, letters give Q) [Compound 35]", "Relative expression of α-SMA (α-SMA/β-actin, %)": 51.28}
{"substance": "His-(D-Ser)-Gln-Gly-Thr-Phe-Thr-Ser-Asp-Tyr-Ser-Lys-Tyr-Leu-Asp-Lys(PEG2-PEG2-CO(CH2)16CO2H)-Arg-Arg-Ala-Gln-Asp-Phe-Val-Gln-Trp-Leu-Nle-Asn-Thr-Gly-Gly-Pro-Ser-Ser-Gly-Ala-Pro-Pro-Pro-Ser-NH2 (H[dS]QGTFTSDYSKYLDK([PEG2′-PEG2′-C18 diacid])RRAQDFVQWL[Nle]NTGGPSSGAPPPS-NH2) [Compound 41]", "Relative expression of α-SMA (α-SMA/β-actin, %)": 42.10}
{"substance": "His-(D-Ser)-Gln-Gly-Thr-Phe-Thr-Ser-Asp-Tyr-Ser-Lys-Tyr-Leu-Asp-Lys(PEG2-PEG2-γGlu-CO(CH2)16CH3)-Arg-Arg-Ala-Gln-Asp-Phe-Val-Gln-Trp-Leu-Met-Asn-Thr-Gly-Gly-Pro-Ser-Ser-Gly-Ala-Pro-Pro-Pro-Ser-NH2 (H[dS]QGTFTSDYSKYLDK([PEG2′-PEG2′-γGlu-Stearoyl])RRAQDFVQWLMNTGGPSSGAPPPS-NH2) [Compound 36]", "Relative expression of α-SMA (α-SMA/β-actin, %)": 42.49}
{"substance": "His-(D-Ser)-Gln-Gly-Thr-Phe-Thr-Ser-Asp-Tyr-Ser-Lys-Tyr-Leu-Asp-Lys(PEG2-PEG2-γGlu-CO(CH2)16CO2H)-Arg-Arg-Ala-Gln-Asp-Phe-Val-Gln-Trp-Leu-Met-Asn-Thr-Gly-Gly-Pro-Ser-Ser-Gly-Ala-Pro-Pro-Pro-Ser-NH2 (H[dS]QGTFTSDYSKYLDK([PEG2′-PEG2′-γGlu-C18 diacid])RRAQDFVQWLMNTGGPSSGAPPPS-NH2) [Compound 34]", "Relative expression of α-SMA (α-SMA/β-actin, %)": 38.18}
{"substance": "His-(D-Ser)-Gln-Gly-Thr-Phe-Thr-Ser-Asp-Tyr-Ser-Lys-Tyr-Leu-Asp-Ser-Lys(PEG2-PEG2-γGlu-CO(CH2)16CH3)-Ala-Ala-His-Asp-Phe-Val-Glu-Trp-Leu-Leu-Arg-Ala-NH2 (H[dS]QGTFTSDYSKYLDSK([PEG2′-PEG2′-γGlu-Stearoyl])AAHDFVEWLLRA-NH2) [Compound 25]", "Relative expression of α-SMA (α-SMA/β-actin, %)": 53.34}
{"substance": "His-(D-Ser)-Gln-Gly-Thr-Phe-Thr-Ser-Asp-Tyr-Ser-Lys-Tyr-Leu-Asp-Ser-Lys(PEG2-PEG2-γGlu-CO(CH2)16CH3)-Ala-Ala-His-Asp-Phe-Val-Glu-Trp-Leu-Leu-Asn-Gly-Gly-Pro-Ser-Ser-Gly-Aln-Pro-Pro-Pro-Ser-NH2 (H[dS]QGTFTSDYSKYLDSK([PEG2′-PEG2′-γGlu-Stearoyl])AAHDFVEWLLNGGPSSGAPPPS-NH2; also: position 35: name writes Aln, letters give A) [Compound 22]", "Relative expression of α-SMA (α-SMA/β-actin, %)": 40.56}
